For 40 molecules, Activity, inhibition and IC50 results are on record in ChEMBL document CHEMBL4033684, “Development of nonsteroidal glucocorticoid receptor modulators based on N-benzyl-N-(4-phenoxyphenyl)benzenesulfonamide scaffold” (Bioorg Med Chem, 2017).

Activity calls are given as the source filed them. The calls are words filed in the database; no cut-off is given here.

Assay type in all cases: cell-based
In data set [1] the target is T1, Glucocorticoid receptor (Homo sapiens, UniProt P04150).
T1 sequence (P04150 whole entry): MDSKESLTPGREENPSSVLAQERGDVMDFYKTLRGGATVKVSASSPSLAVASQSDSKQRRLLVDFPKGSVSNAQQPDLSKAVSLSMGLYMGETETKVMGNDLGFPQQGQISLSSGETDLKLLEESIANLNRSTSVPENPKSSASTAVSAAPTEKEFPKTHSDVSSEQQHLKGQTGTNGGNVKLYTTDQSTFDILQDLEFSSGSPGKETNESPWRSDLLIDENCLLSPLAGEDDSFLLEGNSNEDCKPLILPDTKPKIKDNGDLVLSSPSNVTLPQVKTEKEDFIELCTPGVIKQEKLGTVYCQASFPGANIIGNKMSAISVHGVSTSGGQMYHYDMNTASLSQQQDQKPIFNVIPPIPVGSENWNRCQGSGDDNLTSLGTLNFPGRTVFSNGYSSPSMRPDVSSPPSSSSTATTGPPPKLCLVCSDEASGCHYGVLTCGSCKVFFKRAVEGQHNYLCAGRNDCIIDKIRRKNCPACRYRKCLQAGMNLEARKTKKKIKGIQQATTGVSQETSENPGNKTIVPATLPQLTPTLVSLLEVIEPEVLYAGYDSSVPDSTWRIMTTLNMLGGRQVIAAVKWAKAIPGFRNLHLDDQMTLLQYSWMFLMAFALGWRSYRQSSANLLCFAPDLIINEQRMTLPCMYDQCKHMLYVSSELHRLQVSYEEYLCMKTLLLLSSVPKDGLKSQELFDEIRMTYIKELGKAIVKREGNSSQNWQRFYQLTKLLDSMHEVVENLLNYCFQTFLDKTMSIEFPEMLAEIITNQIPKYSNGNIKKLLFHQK
Kind of data set: Transactivation of human GRalpha expressed in HEK293 cells after 24 hrs by luciferase reporter gene assay. Particulars: hek293, 24 h. In general terms: In a reporter assay the amount or activity of a reporter protein is the signal.

Data set [2] deals with T2, Glucocorticoid receptor (Homo sapiens) (UniProt P04150).
T2 sequence (whole entry): T1 sequence (P04150 whole entry)
Description: (§1) Antagonist activity at human GRalpha expressed in HEK293 cells assessed as inhibition of dexamethasone-induced response after 24 hrs by luciferase reporter gene assay.

For data set [3], the target named is T2, Glucocorticoid receptor (Homo sapiens). Description: Antagonist activity at human GRalpha expressed in HEK293 cells assessed as inhibition of dexamethasone-induced response at 30 uM after 24 hrs by luciferase reporter gene assay relative to control.
For data set [4], the target named is T1, Glucocorticoid receptor. The description is as §1.
Data set [5] has as its target T2, Glucocorticoid receptor (Homo sapiens). Kind of data set: Transrepression of human GRalpha expressed in HEK293 cells co-expressing pGL4.32 assessed as inhibition of TNFalpha-stimulated NF-kB activity at 30 uM preincubated for 4 hrs followed by TNFalpha addition measured after 3 hrs by luciferase reporter gene assay relative to control.

Broadly, the inhibition is the change of the read-out against control, counted positive when it falls. Consider `COc1cccc(C(=O)Nc2ccc(Oc3ccc(O)cc3)c(C)c2)c1`, for which the Activity result on Glucocorticoid receptor [1] is “Not Active”. Moreover, the inhibition entry in data set [2] is “inactive”.
As a reminder, the IC50 is the point on the concentration scale where inhibition reaches its midpoint. In the case of `N#Cc1ccccc1S(=O)(=O)N(Cc1ccccc1)c1ccc(Oc2ccccc2)cc1`, in data set [3], the inhibition is under 50%. Also, the Activity result at Glucocorticoid receptor [1] is listed as “Not Active”. Besides, at Glucocorticoid receptor [4], the IC50 was over 30 µM.
Turning to `O=S(=O)(c1ccc(F)cc1)N(Cc1ccccc1)c1ccc(Oc2ccccc2)cc1`, the Activity result at Glucocorticoid receptor [1] is listed as “Not Active”. In addition, on Glucocorticoid receptor [4], the IC50 stood at 2.04 µM.
As for `Nc1ccc(S(=O)(=O)N(Cc2ccccc2)c2ccc(Oc3ccccc3)cc2)cc1`, the Activity result at Glucocorticoid receptor [1] was “Not Active”. The IC50 at Glucocorticoid receptor [4] is 3.15 µM. For the same molecule, the inhibition in data set [5] is 64%.
Turning to `N#Cc1ccc(S(=O)(=O)N(Cc2cccc(Cl)c2)c2ccc(Oc3ccccc3)cc2)cc1`, the Activity entry at Glucocorticoid receptor [1] is given as “Not Active”. Besides, on Glucocorticoid receptor [4], the IC50 is 5.42 µM.
For `N#Cc1cccc(S(=O)(=O)N(Cc2ccccc2)c2ccc(Oc3ccccc3)cc2)c1`, the inhibition entry in data set [3] is “inactive”. The Activity result at Glucocorticoid receptor [1] is “Not Active”.
`O=S(=O)(c1ccc(Cl)cc1)N(Cc1ccccc1)c1ccc(Oc2ccccc2)cc1`: at Glucocorticoid receptor [1], the Activity entry is reported as “Not Active”. Moreover, the IC50 at Glucocorticoid receptor [4] stood at 2.4 µM.
With `O=S(=O)(c1ccc(Br)cc1)N(Cc1ccccc1)c1ccc(Oc2ccccc2)cc1`, the inhibition in data set [3] was under 50%. Also, the Activity entry on Glucocorticoid receptor [1] was “Not Active”. On Glucocorticoid receptor [4], the IC50 is over 30 µM.
The matching figures for `O=S(=O)(c1ccc(S(F)(F)(F)(F)F)cc1)N(Cc1ccccc1)c1ccc(Oc2ccccc2)cc1`: under 50%, “Not Active” and over 30 µM.
Turning to `Cc1ccc(S(=O)(=O)N(Cc2ccccc2)c2ccc(Oc3ccccc3)cc2)cc1`, the Activity result on Glucocorticoid receptor [1] is “Not Active”. In addition, the IC50 on Glucocorticoid receptor [4] turned out to be 2.02 µM.
Consider `COc1ccc(Oc2ccc(N(Cc3ccccc3)S(=O)(=O)c3ccc(C#N)cc3)cc2)cc1`, for which the inhibition in data set [3] is under 50%. Besides, the Activity entry at Glucocorticoid receptor [1] is reported as “Not Active”. Further, the IC50 on Glucocorticoid receptor [4] is over 30 µM.
The matching figures for `N#Cc1ccc(S(=O)(=O)N(CCCc2ccccc2)c2ccc(Oc3ccccc3)cc2)cc1`: under 50%, “Not Active” and over 30 µM.
`Nc1ccccc1S(=O)(=O)N(Cc1ccccc1)c1ccc(Oc2ccccc2)cc1`: the Activity entry on Glucocorticoid receptor [1] was “Not Active”. For the same molecule, in data set [5], the inhibition stood at 46%.
On to `N#Cc1ccc(S(=O)(=O)N(Cc2ccc(Cl)cc2)c2ccc(Oc3ccccc3)cc2)cc1`, for which, in data set [3], the inhibition was under 50%. In addition, the Activity result at Glucocorticoid receptor [1] is reported as “Not Active”. Further, at Glucocorticoid receptor [4], the IC50 is over 30 µM.
As to `N#Cc1ccc(S(=O)(=O)N(Cc2ccccc2Cl)c2ccc(Oc3ccccc3)cc2)cc1`, on Glucocorticoid receptor [1], the Activity entry is “Not Active”. Further, on Glucocorticoid receptor [4], the IC50 is over 30 µM.
As for `CN(C)c1ccc(S(=O)(=O)N(Cc2ccccc2)c2ccc(Oc3ccccc3)cc2)cc1`, the Activity result at Glucocorticoid receptor [1] is given as “Not Active”. Also, the inhibition result in data set [5] was “inactive”.
Regarding `O=S(=O)(c1ccccc1)N(Cc1ccccc1)c1ccc(Oc2ccccc2)cc1`, the Activity result at Glucocorticoid receptor [1] is “Not Active”. Further, the IC50 at Glucocorticoid receptor [4] was determined as 3.59 µM.
Turning to `COc1cccc(Oc2ccc(N(Cc3ccccc3)S(=O)(=O)c3ccc(C#N)cc3)cc2)c1`, the inhibition entry in data set [3] is “inactive”. In addition, at Glucocorticoid receptor [1], the Activity entry is recorded as “Not Active”.
With `O=S(=O)(c1ccc(C(F)(F)F)cc1)N(Cc1ccccc1)c1ccc(Oc2ccccc2)cc1`, the inhibition in data set [3] is under 50%. In addition, the Activity entry at Glucocorticoid receptor [1] is “Not Active”. The IC50 at Glucocorticoid receptor [4] is over 30 µM.
Regarding `COc1ccccc1Oc1ccc(N(Cc2ccccc2)S(=O)(=O)c2ccc(C#N)cc2)cc1`, in data set [3], the inhibition entry is “inactive”. Besides, on Glucocorticoid receptor [1], the Activity entry is reported as “Not Active”.
Turning to `Cc1ccc(CN(c2ccc(Oc3ccccc3)cc2)S(=O)(=O)c2ccc(C#N)cc2)cc1`, the inhibition in data set [3] was under 50%. The Activity entry on Glucocorticoid receptor [1] is recorded as “Not Active”. At Glucocorticoid receptor [4], the IC50 is over 30 µM.
The like results for `N#Cc1ccc(S(=O)(=O)N(CCc2ccccc2)c2ccc(Oc3ccccc3)cc2)cc1` were, in that order, under 50%, “Not Active” and over 30 µM.
For `N#Cc1ccc(S(=O)(=O)N(Cc2cccc3ccccc23)c2ccc(Oc3ccccc3)cc2)cc1`, the inhibition in data set [3] is under 50%. Moreover, the Activity entry at Glucocorticoid receptor [1] was “Not Active”. Further, the IC50 at Glucocorticoid receptor [4] was over 30 µM.
Regarding `O=S(=O)(Nc1ccc(Oc2ccccc2)cc1)c1cccc(C(F)(F)F)c1`, the Activity entry at Glucocorticoid receptor [1] is “Not Active”. In addition, the IC50 on Glucocorticoid receptor [4] was 11.7 µM.
The matching figures for `O=[N+]([O-])c1ccc(S(=O)(=O)N(Cc2ccccc2)c2ccc(Oc3ccccc3)cc2)cc1`: “Not Active” and 5.77 µM.
For `N#Cc1ccc(S(=O)(=O)N(CC2CC2)c2ccc(Oc3ccccc3)cc2)cc1`, in data set [3], the inhibition entry is “inactive”. The Activity entry at Glucocorticoid receptor [1] was “Not Active”.
On to `Nc1cccc(S(=O)(=O)N(Cc2ccccc2)c2ccc(Oc3ccccc3)cc2)c1`, for which, on Glucocorticoid receptor [1], the Activity result was “Not Active”. Besides, the inhibition in data set [5] was found to be 39%.
As for `N#Cc1ccc(S(=O)(=O)N(Cc2ccc(F)cc2)c2ccc(Oc3ccccc3)cc2)cc1`, in data set [3], the inhibition is under 50%. Further, the Activity result at Glucocorticoid receptor [1] was “Not Active”. Further, on Glucocorticoid receptor [4], the IC50 was over 30 µM.
On to `COc1ccc(CN(c2ccc(Oc3ccccc3)cc2)S(=O)(=O)c2ccc(C#N)cc2)cc1`, for which the inhibition result in data set [3] was “inactive”. The Activity entry on Glucocorticoid receptor [1] is recorded as “Not Active”.
For the molecule `CNc1ccc(S(=O)(=O)N(Cc2ccccc2)c2ccc(Oc3ccccc3)cc2)cc1`, the Activity result on Glucocorticoid receptor [1] is “Not Active”. Further, the inhibition entry in data set [5] is “inactive”.
`CCNc1ccc(S(=O)(=O)N(Cc2ccccc2)c2ccc(Oc3ccccc3)cc2)cc1`: the Activity entry at Glucocorticoid receptor [1] is “Not Active”. Further, the inhibition entry in data set [5] is “inactive”.
Consider `N#Cc1ccc(S(=O)(=O)N(Cc2ccc(Br)cc2)c2ccc(Oc3ccccc3)cc2)cc1`, for which the Activity entry on Glucocorticoid receptor [1] is reported as “Not Active”. On Glucocorticoid receptor [4], the IC50 worked out at 7.87 µM.
The matching figures for `O=S(=O)(c1ccc(OC(F)(F)F)cc1)N(Cc1ccccc1)c1ccc(Oc2ccccc2)cc1`: “Not Active” and 7.48 µM.
Turning to `CC(=O)Nc1ccc(S(=O)(=O)N(Cc2ccccc2)c2ccc(Oc3ccccc3)cc2)cc1`, the Activity entry at Glucocorticoid receptor [1] is reported as “Not Active”. Also, the half-inhibitory concentration (IC50) at Glucocorticoid receptor [4] came to 1.97 µM. In addition, the inhibition in data set [5] worked out at 60%.
As for `COc1ccc(S(=O)(=O)N(Cc2ccccc2)c2ccc(Oc3ccccc3)cc2)cc1`, the Activity entry on Glucocorticoid receptor [1] is “Not Active”. The IC50 at Glucocorticoid receptor [4] was 1.87 µM.
`CC(C)(C)c1ccc(S(=O)(=O)N(Cc2ccccc2)c2ccc(Oc3ccccc3)cc2)cc1`: the inhibition in data set [3] is under 50%. Moreover, on Glucocorticoid receptor [1], the Activity entry is “Not Active”. Moreover, at Glucocorticoid receptor [4], the IC50 was over 30 µM.
With `CCN(CC)c1ccc(S(=O)(=O)N(Cc2ccccc2)c2ccc(Oc3ccccc3)cc2)cc1`, on Glucocorticoid receptor [1], the Activity result is “Not Active”. Besides, the inhibition entry in data set [5] was “inactive”.
As for `N#Cc1ccc(S(=O)(=O)N(Cc2ccc3ccccc3c2)c2ccc(Oc3ccccc3)cc2)cc1`, the inhibition in data set [3] was under 50%. At Glucocorticoid receptor [1], the Activity result is recorded as “Not Active”. On Glucocorticoid receptor [4], the IC50 was over 30 µM.
For `CC(C)(C)c1ccc(CN(c2ccc(Oc3ccccc3)cc2)S(=O)(=O)c2ccc(C#N)cc2)cc1`, the inhibition result in data set [3] was “inactive”. For the same molecule, at Glucocorticoid receptor [1], the Activity result was “Not Active”.
For the molecule `COC(=O)Nc1ccc(S(=O)(=O)N(Cc2ccccc2)c2ccc(Oc3ccccc3)cc2)cc1`, the Activity result on Glucocorticoid receptor [1] is “Not Active”. Moreover, the IC50 on Glucocorticoid receptor [4] was 2.11 µM. The inhibition in data set [5] came to 32%.
